The record followed here is PubChem BioAssay (NCI).

Molecules are shown by their SMILES.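 Protocol summary: plate cells (96-well), add compound at 5 concentrations, incubate 48 h, interpolate endpoints linearly. TGI is the concentration that stops growth completely.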 A value given as a limit tells only on which side of the number the result lay.

As usually defined, the TGI is the concentration giving total growth inhibition. A higher TGI goes with lower sensitivity of the cells.

Among the test systems are HT29 colon; HCT-116 colon; SK-MEL-28 melanoma; MDA-MB-435; MALME-3M melanoma; HCT-15 colon; RXF 393 renal; OVCAR-4 ovarian; SNB-75 CNS.
Holding throughout (assay): DTP human tumour cell line panel, 48 h

For `O=C(O)CCCC(=O)Nn1c(Cc2ccc(Cl)cc2)n[nH]c1=O`, the TGI in the experiment with HT29 colon, in the experiment with HCT-116 colon, in the experiment on SK-MEL-28 melanoma, in the experiment with MDA-MB-435, in the experiment with MALME-3M melanoma and in the experiment on HCT-15 colon was > 100 µM in each case. The TGI with RXF 393 renal and with OVCAR-4 ovarian was > 100 µM throughout.

`CCOC(=O)c1nc2ccc(C(F)(F)F)cc2nc1NCc1ccc(OC)cc1`: the concentration for total growth inhibition (TGI) with HT29 colon, in the experiment on HCT-116 colon, with MDA-MB-435, in the experiment with MALME-3M melanoma, in the experiment on HCT-15 colon and in the experiment with RXF 393 renal was > 100 µM in each case. In addition, the TGI in the experiment with OVCAR-4 ovarian and with SNB-75 CNS was > 100 µM throughout.

With `O=c1[nH]c2ccccc2c(=O)n1/N=C/c1ccc(O)cc1`, the TGI in the experiment with HT29 colon, in the experiment with HCT-116 colon, in the experiment with SK-MEL-28 melanoma, in the experiment with MDA-MB-435, in the experiment on HCT-15 colon and in the experiment with SNB-75 CNS was > 100 µM in each case.

As to `CCOC(=O)c1c[nH]c2c(Sc3ccccc3)nccc2c1=O`, the TGI in the experiment with HT29 colon, in the experiment on HCT-116 colon, in the experiment on SK-MEL-28 melanoma, in the experiment with MDA-MB-435, with HCT-15 colon and with OVCAR-4 ovarian was > 100 µM each time. Moreover, in the experiment with SNB-75 CNS, the concentration for total growth inhibition (TGI) was > 100 µM.

Consider `OC(c1ccc(F)cc1)C(F)(F)c1nc2ccccc2o1` (stereo not drawn), for which the TGI with HT29 colon, in the experiment on HCT-116 colon, in the experiment on SK-MEL-28 melanoma, in the experiment with MDA-MB-435, in the experiment with HCT-15 colon and in the experiment with RXF 393 renal was > 100 µM throughout. Moreover, the total growth inhibition concentration (TGI) in the experiment on OVCAR-4 ovarian and in the experiment on SNB-75 CNS was > 100 µM throughout.

Turning to `CC(=O)Nc1ccc(NCC(=O)Nn2cnc3ccc(S(=O)(=O)Nc4ccc(NC(C)=O)cc4)cc3c2=O)cc1`, the TGI with HT29 colon, in the experiment with HCT-116 colon, in the experiment on SK-MEL-28 melanoma, in the experiment on MDA-MB-435, in the experiment on MALME-3M melanoma and in the experiment with HCT-15 colon was > 100 µM in each case. In addition, the TGI with OVCAR-4 ovarian and with SNB-75 CNS was > 100 µM throughout.

On to `O=c1c2cc(I)ccc2nc(SCc2nncs2)n1Cc1ccccc1`, for which the TGI is > 100 µM in the experiment with HT29 colon; > 100 µM in the experiment on HCT-116 colon; > 100 µM in the experiment on SK-MEL-28 melanoma; > 100 µM with MDA-MB-435; > 100 µM with HCT-15 colon; 81.6 µM with RXF 393 renal. The concentration for total growth inhibition (TGI) with OVCAR-4 ovarian was > 100 µM; with SNB-75 CNS it was 74.9 µM.

Regarding `CCOC(=O)c1c(N)n(-c2ccccc2)c(=O)n(-c2ccccc2)c1=O`, the TGI in the experiment on HT29 colon, with SK-MEL-28 melanoma, in the experiment on MDA-MB-435, with MALME-3M melanoma, with HCT-15 colon and with RXF 393 renal was > 100 µM throughout. The TGI with OVCAR-4 ovarian and in the experiment on SNB-75 CNS was > 100 µM throughout.

`Cc1cc2c(c(C=Nc3ccccc3O)c1)OC1(C=C2)Oc2ccccc2C(=O)N1C` (stereo not drawn): the TGI in the experiment with HT29 colon is 30.2 µM; in the experiment on HCT-116 colon, 27.5 µM; with SK-MEL-28 melanoma it was 47.5 µM; with MDA-MB-435, 82 µM; with HCT-15 colon it was 30.9 µM; in the experiment on RXF 393 renal, 37.2 µM. Also, the TGI with OVCAR-4 ovarian is 60 µM; with SNB-75 CNS, 52.3 µM.

For the molecule `COc1ccccc1NC(=S)N/N=C/c1c(C)n(C)n(-c2ccccc2)c1=O`, the TGI in the experiment with HT29 colon, with HCT-116 colon, in the experiment on SK-MEL-28 melanoma, in the experiment with MDA-MB-435, with HCT-15 colon and with RXF 393 renal was > 100 µM throughout. Moreover, the TGI in the experiment on OVCAR-4 ovarian and in the experiment on SNB-75 CNS was > 100 µM throughout.

On to `CC(C)=CCC[C@]1(C)C=Cc2c(O)c3c(c(CC=C(C)C)c2O1)O[C@]12C(=C[C@@H]4CC1C(C)(C)O[C@@]2(C/C=C(/C)C(=O)O)C4=O)C3=O`, for which the TGI was 1.85 µM in the experiment on HT29 colon; 1.5 µM with HCT-116 colon; 3.26 µM with SK-MEL-28 melanoma; 3.72 µM in the experiment with MDA-MB-435; 3.76 µM in the experiment with MALME-3M melanoma; 2.34 µM in the experiment with RXF 393 renal. Also, the TGI came out at 13.6 µM in the experiment with OVCAR-4 ovarian and 3.28 µM with SNB-75 CNS.

Take `C[C@@H](c1ccccc1)n1c(N)c(-c2ccccn2)c2ccc([N+](=O)[O-])cc2c1=O`: the TGI in the experiment on HT29 colon, with HCT-116 colon, in the experiment on SK-MEL-28 melanoma, with MDA-MB-435, with HCT-15 colon and in the experiment with OVCAR-4 ovarian was > 100 µM throughout. The molecule further registered a concentration for total growth inhibition (TGI) with SNB-75 CNS of 63 µM.

As for `O=c1[nH]c(Cc2ccccc2)nc2c1sc1nc3ccccc3n12`, the TGI with HT29 colon, with HCT-116 colon, in the experiment on SK-MEL-28 melanoma, with MDA-MB-435, in the experiment with HCT-15 colon and in the experiment with RXF 393 renal was > 100 µM in each case. Also, the TGI in the experiment with OVCAR-4 ovarian and in the experiment on SNB-75 CNS was > 100 µM in each case.

With `COc1ccc(N=N/C(=N/NC(=O)c2ccc(C)cc2)c2ccc(N(CCC#N)CCC#N)cc2OC)cc1`, the concentration for total growth inhibition (TGI) with HT29 colon, in the experiment with HCT-116 colon, with SK-MEL-28 melanoma, in the experiment with MDA-MB-435, with MALME-3M melanoma and with HCT-15 colon was > 100 µM in each case. The concentration for total growth inhibition (TGI) in the experiment with RXF 393 renal and in the experiment on OVCAR-4 ovarian was > 100 µM throughout.

Take `CC1=CC(=O)CC(C)(C)C1/C=C/C(C)=C/C=C/C(C)=C/C=C/C=C(C)/C=C/C=C(C)/C=C/C1C(C)=CC(=O)CC1(C)C` (stereo not drawn): the total growth inhibition concentration (TGI) is > 100 µM in the experiment with HT29 colon; 55.1 µM in the experiment on HCT-116 colon; > 100 µM in the experiment on SK-MEL-28 melanoma; 71.4 µM in the experiment on MDA-MB-435; 85 µM in the experiment on HCT-15 colon; > 100 µM in the experiment on RXF 393 renal. Also, in the experiment on OVCAR-4 ovarian, the concentration for total growth inhibition (TGI) is > 100 µM.

Turning to `O=c1oc2ccccc2nc1/C=C(\O)c1ccc(Cl)cc1`, the total growth inhibition concentration (TGI) with HT29 colon, in the experiment on HCT-116 colon, in the experiment on MDA-MB-435, with MALME-3M melanoma, in the experiment on HCT-15 colon and with RXF 393 renal was > 100 µM each time. Further, the TGI with OVCAR-4 ovarian and in the experiment on SNB-75 CNS was > 100 µM each time.
